What was measured:
Format in all cases: cell-based
E. faecium ATCC 49624 = assay: MIC determination in BHI media, OD600; conditions: BHI + 0.1% casamino acids, 18 hours at 37° C., ≧90% OD600 inhibition
Procedure: (§1) Logarithmically growing cells were diluted to approximately 5×10^5 CFU/ml and subjected to test compounds solubilized and serially diluted in DMSO. […] After 18 hours at 37° C., the OD600 was determined by reading the ninety-six well microtiter plates on a microplate reader. For a given concentration, an MIC determination was made if: […]

S aureus ATCC 29213 = assay: MIC determination in BHI media, OD600; conditions: BHI + 0.1% casamino acids, 18 hours at 37° C., ≧90% OD600 inhibition
Procedure: as §1

S. Aureus ATCC 33591 = assay: MIC determination in BHI media, OD600; conditions: BHI + 0.1% casamino acids, 18 hours at 37° C., ≧90% OD600 inhibition
Procedure: as §1

S. aureus (ATCC 29213) = assay: Zone of inhibition screen, 96 well agar array format; set-up: scale not given here
In short: (§2)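 Read-out is antibacterial activity on agar laid out as a 96-well array; every compound went through all strains of the panel.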

E. faecalis (CL 4877) = assay: as above; set-up: scale not given here
In short: as §2

[1] = tested on: S. epidermidis (ATCC 12228); assay: as above; set-up: scale not given here
In short: as §2

[2] = zone of inhibition relative to 1 mg/ml stock solution of p-chlorobiphenylvancomycin
[3] = zone of inhibition relative to 1 mg/ml p-chlorobiphenylvancomycin

Row | SMILES | zone score, S. aureus ATCC 29213 (S. aureus (ATCC 29213); [2]) | zone score, E. faecalis CL 4877 (E. faecalis (CL 4877); [3]) | zone score, S. aureus ATCC 29213 (S. aureus (ATCC 29213); [3]) | zone score, S. epidermidis ATCC 12228 [1, 3] | zone score, E. faecalis CL 4877 (E. faecalis (CL 4877); [2]) | zone score, S. epidermidis ATCC 12228 [1, 2] | further results
1 | COCCOCC(=O)NC1C(=O)NC(CC(N)=O)C(=O)NC2C(=O)NC3C(=O)NC(C(=O)NC(C(=O)O)c4cc(O)cc(O)c4-c4cc3ccc4O)C(O)c3ccc(c(Cl)c3)Oc3cc2cc(c3OC2OC(CO)C(O)C(O)C2OC2CC(C)(NCc3ccc(-c4ccc(Cl)cc4)cc3)C(O)C(C)O2)Oc2ccc(cc2Cl)C1O (stereo not shown) [Compound 100] | 2 |  |  |  |  |  | MIC E. faecium ATCC 49624 (E. faecium ATCC 49624): 0.78 mg/L; MIC S. aureus ATCC 29213 (S aureus ATCC 29213): 0.25 mg/L; MIC S. aureus ATCC 33591 (S. Aureus ATCC 33591): 0.78 mg/L
2 | CC1OC(OC2C(Oc3c4cc5cc3Oc3ccc(cc3Cl)C(O)C3NC(=O)C(NC(=O)C5NC(=O)C(CC(N)=O)NC(=O)C(NC(=O)C(N)Cc5c[nH]cn5)C(O)c5ccc(c(Cl)c5)O4)c4ccc(O)c(c4)-c4c(O)cc(O)cc4C(C(=O)O)NC3=O)OC(CO)C(O)C2O)CC(C)(NCc2ccc(-c3ccc(Cl)cc3)cc2)C1O (stereo not shown) [Compound 555] |  |  |  |  |  |  | MIC E. faecium ATCC 49624 (E. faecium ATCC 49624): 0.39 mg/L; MIC S. aureus ATCC 29213 (S aureus ATCC 29213): 0.78 mg/L; MIC S. aureus ATCC 33591 (S. Aureus ATCC 33591): 0.39 mg/L
3 | CNC(COCc1ccccc1)C(=O)NC1C(=O)NC(CC(N)=O)C(=O)NC2C(=O)NC3C(=O)NC(C(=O)NC(C(=O)O)c4cc(O)cc(O)c4-c4cc3ccc4O)C(O)c3ccc(c(Cl)c3)Oc3cc2cc(c3OC2OC(CO)C(O)C(O)C2OC2CC(C)(NCc3ccc(-c4ccc(Cl)cc4)cc3)C(O)C(C)O2)Oc2ccc(cc2Cl)C1O (stereo not shown) [Compound 331] |  |  |  |  |  |  | MIC E. faecium ATCC 49624 (E. faecium ATCC 49624): 0.39 mg/L; MIC S. aureus ATCC 29213 (S aureus ATCC 29213): 0.78 mg/L; MIC S. aureus ATCC 33591 (S. Aureus ATCC 33591): 0.78 mg/L
4 | CC(NC(=O)CNC(=O)CNC(=O)OCc1ccccc1)C(=O)NC1C(=O)NC(CC(N)=O)C(=O)NC2C(=O)NC3C(=O)NC(C(=O)NC(C(=O)O)c4cc(O)cc(O)c4-c4cc3ccc4O)C(O)c3ccc(c(Cl)c3)Oc3cc2cc(c3OC2OC(CO)C(O)C(O)C2OC2CC(C)(NCc3ccc(-c4ccc(Cl)cc4)cc3)C(O)C(C)O2)Oc2ccc(cc2Cl)C1O (stereo not shown) [Compound 213] |  | 2 | 2 | 2 |  |  | 
5 | C=C(CC(=O)OC)C(=O)NC1C(=O)NC(CC(N)=O)C(=O)NC2C(=O)NC3C(=O)NC(C(=O)NC(C(=O)O)c4cc(O)cc(O)c4-c4cc3ccc4O)C(O)c3ccc(c(Cl)c3)Oc3cc2cc(c3OC2OC(CO)C(O)C(O)C2OC2CC(C)(NCc3ccc(-c4ccc(Cl)cc4)cc3)C(O)C(C)O2)Oc2ccc(cc2Cl)C1O (stereo not shown) [Compound 293] |  | 2 | 2 | 2 |  |  | 
6 | CC1OC(OC2C(Oc3c4cc5cc3Oc3ccc(cc3Cl)C(O)C3NC(=O)C(NC(=O)C5NC(=O)C(CC(N)=O)NC(=O)C(NC(=O)c5ccc(S(C)(=O)=O)cc5)C(O)c5ccc(c(Cl)c5)O4)c4ccc(O)c(c4)-c4c(O)cc(O)cc4C(C(=O)O)NC3=O)OC(CO)C(O)C2O)CC(C)(NCc2ccc(-c3ccc(Cl)cc3)cc2)C1O (stereo not shown) [Compound 264] |  | 0 | 2 | 2 |  |  | 
7 | COCCC(N)C(=O)NC1C(=O)NC(CC(N)=O)C(=O)NC2C(=O)NC3C(=O)NC(C(=O)NC(C(=O)O)c4cc(O)cc(O)c4-c4cc3ccc4O)C(O)c3ccc(c(Cl)c3)Oc3cc2cc(c3OC2OC(CO)C(O)C(O)C2OC2CC(C)(NCc3ccc(-c4ccc(Cl)cc4)cc3)C(O)C(C)O2)Oc2ccc(cc2Cl)C1O (stereo not shown) [Compound 322] |  | 2 | 2 | 2 |  |  | 
8 | CC(=O)N[C@@H](Cc1c[nH]cn1)C(=O)N[C@H]1C(=O)N[C@@H](CC(N)=O)C(=O)N[C@H]2C(=O)NC3C(=O)N[C@H](C(=O)N[C@@H](C(=O)O)c4cc(O)cc(O)c4-c4cc3ccc4O)[C@H](O)c3ccc(c(Cl)c3)Oc3cc2cc(c3OC2OC(CO)C(O)C(O)C2OC2CC(C)(NCc3ccc(-c4ccc(Cl)cc4)cc3)C(O)C(C)O2)Oc2ccc(cc2Cl)[C@H]1O (stereo partly shown) [Compound 181] | 2 |  |  |  | 2 | 2 | 
9 | CC1OC(OC2C(Oc3c4cc5cc3Oc3ccc(cc3Cl)C(O)C3NC(=O)C(NC(=O)C5NC(=O)C(CC(N)=O)NC(=O)C(NC(=O)CCCN)C(O)c5ccc(c(Cl)c5)O4)c4ccc(O)c(c4)-c4c(O)cc(O)cc4C(C(=O)O)NC3=O)OC(CO)C(O)C2O)CC(C)(NCc2ccc(-c3ccc(Cl)cc3)cc2)C1O (stereo not shown) [Compound 65] | 2 |  |  |  | 2 | 2 | 
10 | CC1OC(OC2C(Oc3c4cc5cc3Oc3ccc(cc3Cl)C(O)C3NC(=O)C(NC(=O)C5NC(=O)C(CC(N)=O)NC(=O)C(NC(=O)C(F)F)C(O)c5ccc(c(Cl)c5)O4)c4ccc(O)c(c4)-c4c(O)cc(O)cc4C(C(=O)O)NC3=O)OC(CO)C(O)C2O)CC(C)(NCc2ccc(-c3ccc(Cl)cc3)cc2)C1O (stereo not shown) [Compound 285] |  | 2 | 2 | 2 |  |  | 
11 | CC(=O)OC(CC(=O)NC1C(=O)NC(CC(N)=O)C(=O)NC2C(=O)NC3C(=O)NC(C(=O)NC(C(=O)O)c4cc(O)cc(O)c4-c4cc3ccc4O)C(O)c3ccc(c(Cl)c3)Oc3cc2cc(c3OC2OC(CO)C(O)C(O)C2OC2CC(C)(NCc3ccc(-c4ccc(Cl)cc4)cc3)C(O)C(C)O2)Oc2ccc(cc2Cl)C1O)C[N+](C)(C)C (stereo not shown) [Compound 119] | 2 |  |  |  | 2 | 2 | 
12 | CC1OC(OC2C(Oc3c4cc5cc3Oc3ccc(cc3Cl)C(O)C3NC(=O)C(NC(=O)C5NC(=O)C(CC(N)=O)NC(=O)C(NC(=O)c5cc6ccccc6[nH]5)C(O)c5ccc(c(Cl)c5)O4)c4ccc(O)c(c4)-c4c(O)cc(O)cc4C(C(=O)O)NC3=O)OC(CO)C(O)C2O)CC(C)(NCc2ccc(-c3ccc(Cl)cc3)cc2)C1O (stereo not shown) [Compound 291] |  | 2 | 2 | 2 |  |  | 
13 | CC1OC(OC2C(Oc3c4cc5cc3Oc3ccc(cc3Cl)C(O)C3NC(=O)C(NC(=O)C5NC(=O)C(CC(N)=O)NC(=O)C(NC(=O)c5cccc[n+]5[O-])C(O)c5ccc(c(Cl)c5)O4)c4ccc(O)c(c4)-c4c(O)cc(O)cc4C(C(=O)O)NC3=O)OC(CO)C(O)C2O)CC(C)(NCc2ccc(-c3ccc(Cl)cc3)cc2)C1O (stereo not shown) [Compound 313] |  | 2 | 2 | 2 |  |  | 
14 | COc1cc(OC)c(CNC(=O)CCC(N)C(=O)NC2C(=O)NC(CC(N)=O)C(=O)NC3C(=O)NC4C(=O)NC(C(=O)NC(C(=O)O)c5cc(O)cc(O)c5-c5cc4ccc5O)C(O)c4ccc(c(Cl)c4)Oc4cc3cc(c4OC3OC(CO)C(O)C(O)C3OC3CC(C)(NCc4ccc(-c5ccc(Cl)cc5)cc4)C(O)C(C)O3)Oc3ccc(cc3Cl)C2O)c(OC)c1 (stereo not shown) [Compound 66] | 2 |  |  |  | 2 | 2 | 
15 | CC1OC(OC2C(Oc3c4cc5cc3Oc3ccc(cc3Cl)C(O)C3NC(=O)C(NC(=O)C5NC(=O)C(CC(N)=O)NC(=O)C(NC(=O)C(Cc5c[nH]cn5)NC=O)C(O)c5ccc(c(Cl)c5)O4)c4ccc(O)c(c4)-c4c(O)cc(O)cc4C(C(=O)O)NC3=O)OC(CO)C(O)C2O)CC(C)(NCc2ccc(-c3ccc(Cl)cc3)cc2)C1O (stereo not shown) [Compound 195] | 2 |  |  |  | 2 | 2 | 
16 | CC1OC(OC2C(Oc3c4cc5cc3Oc3ccc(cc3Cl)C(O)C3NC(=O)C(NC(=O)C5NC(=O)C(CC(N)=O)NC(=O)C(NC(=O)c5cccn5C)C(O)c5ccc(c(Cl)c5)O4)c4ccc(O)c(c4)-c4c(O)cc(O)cc4C(C(=O)O)NC3=O)OC(CO)C(O)C2O)CC(C)(NCc2ccc(-c3ccc(Cl)cc3)cc2)C1O (stereo not shown) [Compound 229] |  | 2 | 2 | 2 |  |  | 
